This note sets out measurements from ChEMBL document CHEMBL1201862, “PubChem BioAssay data set” (2004).

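Test compounds were applied to cells in 96-well plates for 48 hours at 5 doses. GI50 marks 50% less growth.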 Calls of active or inactive are those of the source. Rule as the data show it: active = GI50 up to about 1.1 µM and inactive = higher.

Holding throughout (test): growth of human tumour cells (NCI), 48 h
In assay [1] the test system is 786-0.
The subject of assay [2] is CAKI-1.
Assay [3] relates to COLO 205.
Assay [4] concerns HCT-15.
The subject of assay [5] is HL-60.
Assay [6] has as its system Hs-578T.
The test system of assay [7] is K562.
The subject of assay [8] is KM12.
The subject of assay [9] is NCI/ADR-RES.
Assay [10] deals with OVCAR-4.
The test system of assay [11] is OVCAR-5.
The test system of assay [12] is PC-3.
The test system of assay [13] is RPMI-8226.
Assay [14] concerns SNB-19.
Assay [15] concerns SNB-75.
The test system of assay [16] is SW-620.
The test system of assay [17] is TK-10.
Assay [18] deals with UACC-257.
In assay [19] the test system is UO-31.
Assay [20] relates to NCI-H226.

Turning to `Clc1ccc(C(c2ccc(Cl)cc2)N2CCNCC2)cc1`, the GI50 in assay [1] is 1.77 µM (inactive); in [2], 4.39 µM (inactive); in assay [3], 1.96 µM (inactive); in [4], 2.58 µM; in [5], 1.86 µM (inactive); in assay [6], 2.74 µM (inactive). The GI50 in assay [7] was 1.58 µM (inactive); in [8], 1.77 µM (inactive); in [9], 3.1 µM (inactive); in [10], 2.48 µM (inactive); in assay [11], 6.78 µM (inactive); in [12], 2.45 µM (inactive). The GI50 was 1.83 µM (inactive) in assay [13]; 5.13 µM (inactive) in assay [14]; 2.34 µM (inactive) in assay [15]; 2.22 µM (inactive) in assay [16]; 1.64 µM (inactive) in [17]; 2.12 µM (inactive) in [18]. The GI50 in [19] was 2.02 µM (inactive).

On to `CCN(CCO)CC1COc2ccccc2O1` (stereo not given), for which the GI50 is > 100 µM (inactive) in assay [1]; > 100 µM (inactive) in [2]; > 100 µM (inactive) in assay [3]; > 100 µM in assay [4]; > 100 µM (inactive) in assay [5]; > 100 µM (inactive) in assay [6]. The GI50 in assay [7], in assay [8], in assay [20], in [9], in assay [10] and in assay [11] was > 100 µM (inactive) throughout. Also, the GI50 in assay [12], in [17], in [18] and in [19] was > 100 µM (inactive) in each case.

For `O=C1CC2OCC=C3CN4CCC5(C(=O)O)C(N1)C2C3CC45` (stereo not given), the GI50 is > 100 µM (inactive) in assay [1]; > 100 µM (inactive) in assay [2]; > 100 µM (inactive) in [3]; > 100 µM in assay [4]; > 100 µM (inactive) in [5]; > 100 µM (inactive) in assay [6]. The GI50 in assay [7], in assay [8], in assay [20], in assay [9], in assay [10] and in [11] was > 100 µM (inactive) in each case. Moreover, the GI50 in [12], in assay [14], in assay [15], in assay [16], in assay [17] and in assay [18] was > 100 µM (inactive) in each case. In [19], the GI50 is > 100 µM (inactive).

For `O=C1/C(=C/c2n[nH]cc2-c2ccc(Cl)cc2)C(=O)N(c2ccccc2)C1c1ccccc1` (stereo not given), the GI50 in assay [1] is 17.2 µM (inactive); in assay [2], 10.1 µM (inactive); in assay [3], 14.2 µM (inactive); in assay [4] it was 15 µM; in [5], 12.9 µM (inactive); in assay [6] it was 9.4 µM (inactive). Also, the GI50 in [7] was 8.41 µM (inactive); in assay [8] it was 20.9 µM (inactive); in assay [20], 24.2 µM (inactive); in assay [9], 21.6 µM (inactive); in assay [10], 25.6 µM (inactive); in assay [12] it was 6.92 µM (inactive). Besides, the GI50 is 13.7 µM (inactive) in [13]; 27.4 µM (inactive) in [14]; 18.3 µM (inactive) in assay [16]; 27.5 µM (inactive) in [17]; 19.7 µM (inactive) in assay [18]; 18.9 µM (inactive) in assay [19].

On to `O=[N+]([O-])c1cccc(-c2nc(-c3ccccc3)c(-c3ccccc3)[nH]2)c1`, for which the GI50 in assay [1], in [2], in assay [3], in [5], in assay [6] and in assay [7] was > 100 µM (inactive) throughout. Moreover, the GI50 in assay [20], in [9], in [11], in assay [12], in assay [13] and in assay [14] was > 100 µM (inactive) throughout. The GI50 in [16], in [17], in assay [18] and in [19] was > 100 µM (inactive) each time.

Turning to `CC(C)(C)c1ccc(O)c(CN(Cc2cc(C(C)(C)C)ccc2O)c2ccccc2)c1`, the GI50 in assay [1] was 16.6 µM (inactive); in assay [2] it was 31.8 µM (inactive); in assay [3], 17.1 µM (inactive); in assay [4], 18.3 µM; in assay [6], 18.6 µM (inactive); in [7] it was 11.6 µM (inactive). For the same molecule, the GI50 in assay [8] is 22.2 µM (inactive); in [9], 19.1 µM (inactive); in assay [10], 19.2 µM (inactive); in assay [11] it was 16.1 µM (inactive); in [12], 17.9 µM (inactive); in assay [13], 16.7 µM (inactive). The GI50 was 16.4 µM (inactive) in assay [14]; 18.7 µM (inactive) in assay [15]; 18.5 µM (inactive) in [16]; 17.1 µM (inactive) in assay [17]; 2.48 µM (inactive) in assay [18]; 14.4 µM (inactive) in [19].

On to `COc1ccc(Nc2nc3ccc(C(F)(F)F)cc3nc2C(=O)O)cc1OC`, for which the GI50 in assay [1] is 35 µM (inactive); in [2], 39.5 µM (inactive); in assay [3] it was 43 µM (inactive); in assay [4], 25.9 µM; in [5], 29.9 µM (inactive); in assay [6], 38.6 µM (inactive). The GI50 in [7] is 29 µM (inactive); in assay [8], 16.9 µM (inactive); in assay [20], 36.7 µM (inactive); in [9], 20.2 µM (inactive); in assay [10], 40.6 µM (inactive); in assay [11], 47 µM (inactive). Moreover, the GI50 in assay [12] is 26.5 µM (inactive); in [14], 23.6 µM (inactive); in assay [15] it was 35.8 µM (inactive); in [16] it was 29.2 µM (inactive); in assay [18], 30.6 µM (inactive); in assay [19], 19.2 µM (inactive).

`CCOC(=O)c1c(N2CCCC2)ncn(-c2ccccc2)c1=S`: the GI50 in assay [1] was > 100 µM (inactive); in assay [3] it was > 100 µM (inactive); in assay [4], > 100 µM; in [5] it was > 100 µM (inactive); in [6] it was > 100 µM (inactive); in assay [7] it was > 100 µM (inactive). Besides, the GI50 in assay [8], in assay [20], in [9], in assay [10], in [11] and in [12] was > 100 µM (inactive) throughout. In addition, the GI50 in assay [13], in assay [14], in [15], in [16], in assay [17] and in assay [18] was > 100 µM (inactive) each time. The GI50 in assay [19] is > 100 µM (inactive).

Turning to `CCCC(=O)N1CCN(c2ccc3c(c2)OC(C)O3)CC1` (stereo not given), the GI50 in [1] was > 100 µM (inactive); in [2] it was > 100 µM (inactive); in assay [3], > 100 µM (inactive); in assay [4] it was > 100 µM; in assay [6], > 100 µM (inactive); in [7] it was > 100 µM (inactive). Also, the GI50 in [8], in assay [20], in [9], in [10], in [11] and in assay [12] was > 100 µM (inactive) each time. The GI50 in assay [14] was > 100 µM (inactive); in [15], 15.4 µM (inactive); in assay [16] it was > 100 µM (inactive); in assay [17], > 100 µM (inactive); in assay [18], > 100 µM (inactive); in assay [19], > 100 µM (inactive).

`COc1ccc(-c2c3c(n(C4OC(CO)C(O)C(O)C4O)c(=S)c2C#N)CCCC3)cc1` (stereo not given): the GI50 in assay [1] is > 100 µM (inactive); in [2], > 100 µM (inactive); in assay [3], > 100 µM (inactive); in assay [4], > 100 µM; in [5], 72.9 µM (inactive); in assay [6] it was > 100 µM (inactive). Further, the GI50 in assay [8], in assay [20], in assay [9], in [10], in assay [11] and in assay [12] was > 100 µM (inactive) in each case. The GI50 in assay [15] is 0.355 µM (active); in assay [16], > 100 µM (inactive); in assay [17], > 100 µM (inactive); in assay [18], > 100 µM (inactive).

For the molecule `Cc1cc2c(c(C(=O)NCCC(=O)O)c1)Oc1c(cc(C)cc1C(=O)NCCC(=O)O)S2`, the GI50 in assay [1] was > 100 µM (inactive); in assay [2], > 100 µM (inactive); in assay [3], > 100 µM (inactive); in assay [4], > 100 µM; in assay [6] it was > 100 µM (inactive); in [7] it was > 100 µM (inactive). Besides, the GI50 in [8], in assay [20], in [9], in assay [10], in assay [11] and in [12] was > 100 µM (inactive) throughout. In addition, the GI50 in assay [13], in assay [14], in assay [15], in assay [16], in assay [17] and in [18] was > 100 µM (inactive) throughout.
